The subject of series [1] is CART19 cells. Put plainly: CART19 proliferation: co-culture with irradiated JeKo-1, absolute CD3+ T cell counts by flow cytometry. It counts as cell-based, human. As to conditions: 1 μM. The method, then:
FIGS. 11A-11B. Proliferation. […] CART19 and irradiated JeKo-1 were co-cultured at 1:1 ratio for 24 hours in the presence of DMSO or vecabrutinib (1 μM or 10 μM) or ibrutinib (1 μM or 10 μM). Absolute CD3^+T cell counts were assessed by flow cytometry (*p<0.05, ****p<0.0001, two-way ANOVA). FIG. 11B) To further verify effect of BTK inhibition on CART19 proliferation, using different set of donors for CAR T cell production, CART19 and irradiated JeKo-1 were co-cultured at 1:1 ratio for 24 hours in the presence of DMSO or vecabrutinib (10 μM) or ibrutinib (10 μM).
For proliferation assays, CART19 cells were cultured with irradiated CD19^+ cell line Jeko-1 at a 1:1 ratio for 24 hours. Then, the cells were harvested and washed with flow buffer, following by surface staining with anti-hCD3 (eBioscience, San Diego, CA, USA) and LIVE/DEAD™ Fixable Aqua Dead Cell Stain Kit (Invitrogen, Carlsbad, CA, USA). […] Absolute quantification was obtained using volumetric measurement or CountBright absolute counting beads (Invitrogen, Carlsbad, CA, USA). […]
Next, the effect of vecabrutinib on CART19 proliferation was assessed. CART19 cells were cocultured with irradiated JeKo-1 cells for 24 hours in the presence of vecabrutinib (1 μM or 10 μM), and the absolute count of CART19 was measured by flow cytometry and used as a surrogate for proliferation. […]

In series [2] the test system is CD19+ Mantle cell lymphoma cell line, Jeko-1. Put plainly: CART19 cytotoxicity: co-culture of CART19 or UTD T cells with JeKo-1, percent killing. It counts as cell-based, human. The method, then:
FIGS. 1A-1C. […] CART19 and live JeKo-1 were co-cultured at 1:1 ratio for 24 hours in the presence of DMSO or vecabrutinib (1 μM or 10 μM). The percentage of killing were assessed relative to control (****p<0.0001, two-way ANOVA). […] CART19 and irradiated JeKo-1 were co-cultured at 1:1 ratio for 24 hours in the presence of DMSO or vecabrutinib (1 μM or 10 μM). Absolute CD3^+ T cell counts were assessed by flow cytometry (**p<0.01, two-way ANOVA) . […] JeKo-1 target cells were incubated with CART19 at a 5:1 ratio with monensin, hCD49d, and hCD28 in the presence of vecabrutinib at the indicated concentrations for 4 hours. Cells were then analyzed using intracellular flow cytometric assessment of CD107a as a marker for degranulation.
FIG. 10. CART19 cytotoxicity in the presence of Vecabrutinib versus the irreversible BTK inhibitor, Ibrutinib. CART19 or control cells (UTD) were cocultured at different effector-to-target ratio (E:T) with Jeko-1 cell line with vecabrutinib at 1 μM or 10 μM, or ibrutinib at 1 μM. At 24 hours, live Jeko cells numbers was measured by flow cytometry and percent killing was calculated relative to control (*p<0.05, **p<0.01, two-way ANOVA).
To investigate CAR T-specific cytotoxicity, CART19 cells or control UTD T cells were co-cultured with the CD19^+ Mantle cell lymphoma cell line, Jeko-1, at 1:1 ratio and treated with vehicle (DMSO) or vecabrutinib at 1 μM or 10 μM for 24 hours (FIG. 1A).
Measurement of CART19 killing of JeKo-1 cells at different effector to target ratios. […] Results were normalized to target cells incubated with the respective concentration of the BTK inhibitor alone (with no CART19) to eliminate the direct cytotoxic effect of the inhibitor on lymphoma cells without CART19. 10 μM of ibrutinib was not included as it caused 100% killing of CART19 cells and Jeko-1 cells (FIGS. 11A and 11B).

For series [3], the system named is luciferase+JeKo-1 cells. Put plainly: JeKo-1 xenograft model with CART19 plus oral vecabrutinib. As to conditions: CART19 + vecabrutinib 50 mg/kg BID vs CART19 + vehicle, weekly weighing (FIG. 4C). It counts as in vivo. The method, then:
FIGS. 4A-4C. Reversible BTK inhibition in vivo enhances CAR T cell antitumor activity in xenograft models. […] On day-14, NSG mice were injected with 1×10^6 luciferase+JeKo-1 cells intravenously. Gavage began on day −1 with vecabrutinib 50 mg/kg BID or vehicle. Untransduced T cells (UTD) or CART19 were infused on day 0. Mice were imaged weekly to assess the tumor burden. p/s=photons/seconds. […] Mice were bled weekly to measure CART19 by flow cytometry (*p<0.05, one-way ANOVA). FIG. 4C) Vecabrutinib decreases CRS. Mouse weight and wellbeing along with elevation of human cytokines represent a surrogate for the development of CRS intensity in mice receiving CART19. […]
6-8 week old, non-obese diabetic/severe combined immunodeficient female mice bearing a targeted mutation in the interleukin (IL)-2 receptor gamma chain gene (NSG) were obtained from Jackson Laboratories (Jackson Laboratories, Bar Harbor, ME, USA). […] Mice were weighed weekly, and measurements were recorded in grams. Tumor burden was measured weakly by imaging mice with a bioluminescent imager using an IVIS® Lumina S5 Imaging System (PerkinElmer, Hopkinton, MA, USA), and measurements were recorded in total flux (p/s). […] Absolute quantification was obtained using volumetric measurement or CountBright absolute counting beads (Invitrogen, Carlsbad, CA, USA). […]

For series [4], the system named is CART19 cells. Put plainly: RNA-Seq of CART19 cells stimulated with irradiated JeKo-1 (differential expression, Ingenuity Pathway Analysis). It is filed as cell-based, human. As to conditions: 10 μM vs vehicle. The method, then:
CART19 and irradiated Jeko-1 cells were co-cultured at a 1:1 ration for 72 hours with DMSO or 10 μM Vecabrutinib. Three biological replicates of stimulated and unstimulated CART19 cells were included.
RNA was isolated using miRNeasy Micro kit (Qiagen, Gaithersburg, MD, USA) and treated with RNase-Free DNase Set (Qiagen, Gaithersburg, MD, USA). Total RNA was prepped with a SMARTer stranded total RNA-seq kit v2, Pico input mammalian (Takara, Mountain View, CA, USA). Total RNA (three samples per lane) was sequenced on an Illumina HiSeq 4000 (Illumina, San Diego, CA, USA). Library preparation and sequencing were performed by the Medical Genome Facility Genome, Analysis Core (Mayo Clinic, Rochester, MN, USA). Fastq files were viewed in FastQC v0.11.8 to check for quality. Adaptor sequences were removed using Cutadapt v1.18.46. Output files were re-checked for quality and adaptor removal using FastQC v0.11.8. The latest human (GRCh38) reference genomes were downloaded from NCBI. Genome index files were generated using STAR, and the paired end reads were mapped to the genome for each condition. HTSeq was used to generate expression counts for each gene, and DeSeq2 was used to calculate differential expression using adjusted p values <0.05. Heatmap was created using pheatmap (cran.r-project.org/web/packages/pheatmap/index.html). Networks were generated using Ingenuity Pathway Analysis v49932394 (QIAGEN, qiagenbioinformatics.com/products/ingenuity-pathway-analysis). Gene set enrichment analyses were performed using Enrichr (maayanlab.cloud/Enrichr/).
• Biological Replicates: C267, C278, C296 where CART19 cells were generated • Conditions: • Vehicle • 1 μM vecabrutinib • 10 μM vecabrutinib • Activated for 72 hours with Irradiated JeKo-1 (1:1 E:T Ratio) • mRNA was extracted from CART19 cells • RNA sequencing was performed
• FastQC (initial quality check) • Trimmomatic (trim adapters and overrepresented sequences) • FastQC (to confirm removal of the above) • STAR (align to the latest human genome annotation, GRCh38.p13) • HTSeq (obtain counts for each gene) • DESeq2 • Normalized counts across samples • Calculated differential expression between groups • Multiple hypothesis correction (Benjamini-Hochberg procedure)

SMILES strings stand for the structures. “Also recorded” adds a separate entry of the source.

For the compound `C=CC(=O)N1CCC[C@@H](n2nc(-c3ccc(Oc4ccccc4)cc3)c3c(N)ncnc32)C1` [ibrutinib], in series [1] (irradiated JeKo-1 1:1, 24 hours (FIG. 11A)), the “CART19 proliferation (absolute CD3+ T cell count)” value is “no effect”. Further, in series [2] (10 μM), the “killing of CART19 cells and Jeko-1 cells” value came out at 100%. Moreover, in series [2] (different E:T ratios, 24 hours, vecabrutinib 1 μM or 10 μM, ibrutinib 1 μM, normalized to target cells with inhibitor alone (FIG. 10)), the “CART19-mediated killing of Jeko-1 lymphoma cells” value is “no effect”.

For `NC(=O)[C@H]1CCN(c2ncnc(N)c2F)C[C@@H]1N1CCC[C@@H](Nc2cc(Cl)cc(C(F)(F)F)c2)C1=O` [vecabrutinib], the “CART19 antigen specific proliferation (absolute CD3+ T cell count)” value in series [1] (irradiated JeKo-1 1:1, 24 hours (FIG. 1B)) is recorded as “no significant effect”. The “CART19-mediated killing of tumor cells (tumor specific cytotoxicity), percentage of killing relative to control” value in series [2] (CART19:JeKo-1 1:1, 24 hours, 1 μM or 10 μM vs DMSO (FIG. 1A)) is “increases CART19-mediated killing of tumor cells; also recorded: dose-dependent increase”. The “body weight change from day 0 (surrogate for CRS)” value in series [3] was “decreases CRS; also recorded: better maintained their body weight”. In series [4] (72 hours (FIG. 5F, FIG. 9)), the “PI3K/AKT signaling z-score (Ingenuity Pathway Analysis)” value worked out at 0.707. Besides, in series [4] (72 hours (FIG. 9)), the “IL-8 signaling pathway z-score (Ingenuity Pathway Analysis)” value is on record as −1.941, the “PDGF signaling z-score (Ingenuity Pathway Analysis)” value is −1.667, the “PTEN signaling pathway Z-score (Ingenuity Pathway Analysis)” value amounted to 0.333 and the “STAT 3 pathway z-score (Ingenuity Pathway Analysis)” value is on record as −3.051. Also, the “TH1 pathway Z-score (Ingenuity Pathway Analysis)” value in series [4] (72 hours (FIG. 9)) was found to be 0.816.

The values above are taken from US20260158140A1, “METHODS AND MATERIALS FOR IMPROVING T CELL THERAPIES” (Mayo Foundation for Medical Education and Research, priority 2021, published 2026).
